Experimental data from US20220184091A1, “Methods of Treating Cancer with Chk1 Inhibitors” (Sierra Oncology, Inc., priority 2019, published 2022).
Where two headings read alike, the source gives them in different places.

Columns and labels:
IFNβ, CXCL10 and CCL5 = test: qPCR of IFNβ, CXCL10 and CCL5 mRNA in SCLC cell lines; assay type: cell-based; conditions: 24 and 72 hours
Experimental: “Con” indicates control. Data presented as mean±SD and p values by t-test ***p<0.001.
(§1) Real-time PCR was done using SYBR Select Master Mix (Life Technologies, cat #4472908) according to the manufacturer's protocol. Primers were purchased from Sigma Aldrich, Inc. Triplicate PCR reactions were run on ABI (7500 Fast Real Time PCR System). The comparative Ct method using the average 2ΔΔCT value for each set of triplicates was used, and the average of the biological replicates was calculated. Negative controls were included for every primer set, and GAPDH was used as the […].

PD-L1 [1] = test: Flow cytometry of surface PD-L1 in SCLC cell lines; assay type: cell-based; conditions: all SCLC cell lines tested; 1 μM for 72 hours
Experimental: Data presented as mean±SD and p values by t-test ***p<0.001.
Single-cell suspensions were prepared and stained according to standard protocols for flow cytometry with antibodies. For intracellular staining, cells were fixed and permeabilized with BD Cytofix/Cytoperm (BD Biosciences). The data were acquired on a Fortessa or Calibur platform (BD Biosciences) and analyzed with FlowJo software (version 7.6; Tree Star). For analyzing the abundance and the function of CD4+ or CD8+ TILs, single-cell suspensions were prepared from tumors and spleen and stained; the staining of spleen cells was used as the reference of lymphocyte gating, then CD3+ cells were gated, and then CD4+ or CD8+ population was analyzed.

[2] = tested on: NSCLC cancer lines (A549, Calu1, Calu6, H1299, H1573, H1944, H1993); test: Cell viability, NSCLC cancer lines; assay type: cell-based; conditions: read-out: IC50 range
CXCL10 and CCL5 = test: qPCR of CXCL10 and CCL5 in MBT-2 tumors; assay type: in vivo, mouse
Source text: FIGS. 23A-D show the qPCR measurement of CXCL10 and CCL5 mRNA expression in MBT-2 (FIG. 23A and FIG. 23B) and MC38 (FIG. 23C and FIG. 23D) tumors resected after 7 or 14 days of treatment with SRA737 5/7 days. Data presented as mean±SD and p values by t-test * p<0.05, **p<0.01, ***p<0.001.
as §1
The flank of immunocompetent mice was then treated with SRA737 monotherapy for 5-days-on/2-days-off for either one or two cycles and the expression of CCL5 and CXCL10 in extracted tumors were analyzed. […] The previously used dosing regimen of 5-days-on/2-days-off was modified to a schedule of 7-days-on/7-days-off for SRA737 treatment with or without co-treatment with anti-PD1 (Days 3, 7 and 11) based on the results of induction of chemokines secretion after 7 days.

PD-L1 [3] = test: Western blot of total PD-L1 in SCLC cell lines; assay type: cell-based; conditions: all SCLC cell lines tested; 1 μM for 72 hours
Experimental: Western blot analysis was performed using SDS-PAGE followed by transfer to nitrocellulose membrane using the BioRad Gel system. Membranes were incubated in the following primary antibodies (1:1000) overnight: PD-L1 (CST), total and phospho- (S366) STING (CST), total and phospho- (S396) IRF3 (CST), phospho-YH2AX (CST) and Actin (Sigma). Secondary anti-rabbit, HRP-linked antibodies were purchased from Cell Signaling Biosciences and detected using the Chemidoc imaging system mage-captured with Image Studio Version 3.1 software.

[4] = target: T1, Chk1 S296 autophosphorylation (Homo sapiens, UniProt O14757); test: Gemcitabine-induced Chk1 S296 autophosphorylation in HT29 tumor xenografts (western blotting); assay type: in vivo, mouse; conditions: mice bearing HT29 xenografts; oral, 24 hours after gemcitabine 100 mg/kg IV
T1 construct: mice bearing HT29 tumor xenografts were administered; endogenous in cells; host or cells: HT29 human colon cancer xenografts in mice
Experimental: (§2) The effect of SRA737 on Gemcitabine induced Chk1 S296 autophosphorylation was assessed as described in Walton et al. (Oncotarget. 2016 Jan. 19; 7(3): 2329-2342), herein incorporated by reference for all it teaches. Briefly, mice bearing HT29 tumor xenografts were administered (i) vehicle control or (ii) gemcitabine (100 mg/kg in saline, IV) or (iii) a combination of SRA737 (12.5, 25, 50 or 100 mg/kg in DTPW, oral) and gemcitabine (100 mg/kg) with SRA737 administered 24 hours following gemcitabine administration (n=3 per time point per treatment). […] Exposure in the tumor was greater than 10-fold higher than in plasma. The circulating plasma concentration at this 24-hour timepoint corresponded to a free drug concentration of approximately 6 nM (2 ng/mL) based on plasma protein binding in mice of 94%.

[5] = SRA737 plasma and tumor concentrations in HT29 xenograft model; assay type: in vivo; conditions: mouse, oral
Experimental: For each dose, columns from left to right are concentrations in plasma at 6 hours, plasma at 24 hours, tumor at 6 hours, and tumor at 24 hours, respectively.
as §2, with “([…])” for “(iii) a combination of SRA737 (12.5, 25, 50 or 100 mg/kg in DTPW, oral)”

T1 sequence (O14757 whole entry): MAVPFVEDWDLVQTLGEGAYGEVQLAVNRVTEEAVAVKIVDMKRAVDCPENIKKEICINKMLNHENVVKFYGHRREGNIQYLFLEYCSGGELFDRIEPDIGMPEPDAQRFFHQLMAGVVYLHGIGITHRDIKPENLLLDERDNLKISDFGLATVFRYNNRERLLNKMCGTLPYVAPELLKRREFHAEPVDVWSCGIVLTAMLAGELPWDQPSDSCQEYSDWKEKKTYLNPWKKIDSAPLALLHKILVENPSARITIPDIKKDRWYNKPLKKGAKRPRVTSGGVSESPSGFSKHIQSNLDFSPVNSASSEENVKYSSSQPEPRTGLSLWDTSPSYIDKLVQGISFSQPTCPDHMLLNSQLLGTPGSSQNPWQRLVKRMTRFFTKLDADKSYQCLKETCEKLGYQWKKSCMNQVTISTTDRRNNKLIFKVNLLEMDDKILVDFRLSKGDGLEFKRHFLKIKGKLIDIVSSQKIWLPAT

N#Cc1cnc(Nc2cc(NCC3CNCCO3)c(C(F)(F)F)cn2)cn1 (centres unmarked) [SRA737, 5-[[4-[[morpholin-2-yl]methylamino]-5-(trifluoromethyl)-2-pyridyl]amino]pyrazine-2-carbonitrile]
IFNβ, CXCL10 and CCL5 (targets of IRF3) (IFNβ, CXCL10 and CCL5): activated | cell surface PD-L1 expression (PD-L1 [1]): significantly increased | IC50 [2]: ≥ 800 nM | CCL5 levels (CXCL10 and CCL5; after 7 days, p<0.01): significantly induced | CCL5 levels (CXCL10 and CCL5; after 14 days): no significant difference | CXCL10 expression (CXCL10 and CCL5; after both 7 days and 14 days, p<0.05): significant induction | total PD-L1 levels (PD-L1 [3]): significantly increased | SRA737 doses at which inhibition of pS296 Chk1 was observed [4]: greater than or equal to 12.5 mg/kg | concentration at 6 h ([5]; plasma, HT29 xenograft, Dose 12.5 mg/kg, read-out: Plasma (6 h)): 1.01 µM | concentration at 24 h ([5]; plasma, HT29 xenograft, Dose 12.5 mg/kg, read-out: Plasma (24 h)): 0.0777 µM | concentration at 6 h ([5]; plasma, HT29 xenograft, Dose 25 mg/kg, read-out: Plasma (6 h)): 2.52 µM | concentration at 24 h ([5]; plasma, HT29 xenograft, Dose 25 mg/kg, read-out: Plasma (24 h)): 0.893 µM | concentration at 6 h ([5]; plasma, HT29 xenograft, Dose 50 mg/kg, read-out: Plasma (6 h)): 3.96 µM | concentration at 24 h ([5]; plasma, HT29 xenograft, Dose 50 mg/kg, read-out: Plasma (24 h)): 0.512 µM | concentration at 6 h ([5]; plasma, HT29 xenograft, Dose 100 mg/kg, read-out: Plasma (6 h)): 5.84 µM | concentration at 24 h ([5]; plasma, HT29 xenograft, Dose 100 mg/kg, read-out: Plasma (24 h)): 1.67 µM | concentration at 24 h ([5]; plasma, mice, PK/PD benchmark): > 0.1 µM | concentration at 6 h ([5]; tumor, HT29 xenograft, Dose 3.125 mg/kg, read-out: Tumor (6 h)): 3.18 µM | concentration at 24 h ([5]; tumor, HT29 xenograft, Dose 3.125 mg/kg, read-out: Tumor (24 h)): 0.646 µM | concentration at 6 h ([5]; tumor, HT29 xenograft, Dose 6.25 mg/kg, read-out: Tumor (6 h)): 4.01 µM | concentration at 24 h ([5]; tumor, HT29 xenograft, Dose 6.25 mg/kg, read-out: Tumor (24 h)): 0.966 µM | concentration at 6 h ([5]; tumor, HT29 xenograft, Dose 12.5 mg/kg, read-out: Tumor (6 h)): 19 µM | concentration at 24 h ([5]; tumor, HT29 xenograft, Dose 12.5 mg/kg, read-out: Tumor (24 h)): 3.97 µM | concentration at 6 h ([5]; tumor, HT29 xenograft, Dose 25 mg/kg, read-out: Tumor (6 h)): 37.5 µM | concentration at 24 h ([5]; tumor, HT29 xenograft, Dose 25 mg/kg, read-out: Tumor (24 h)): 16.3 µM | concentration at 6 h ([5]; tumor, HT29 xenograft, Dose 50 mg/kg, read-out: Tumor (6 h)): 76.3 µM | concentration at 24 h ([5]; tumor, HT29 xenograft, Dose 50 mg/kg, read-out: Tumor (24 h)): 27.5 µM | concentration at 6 h ([5]; tumor, HT29 xenograft, Dose 100 mg/kg, read-out: Tumor (6 h)): 132 µM | concentration at 24 h ([5]; tumor, HT29 xenograft, Dose 100 mg/kg, read-out: Tumor (24 h)): 102 µM
